The target of one experiment is T1, DFNB31-3 (Homo sapiens, UniProt Q9P202).
T1 sequence (Q9P202 1-907): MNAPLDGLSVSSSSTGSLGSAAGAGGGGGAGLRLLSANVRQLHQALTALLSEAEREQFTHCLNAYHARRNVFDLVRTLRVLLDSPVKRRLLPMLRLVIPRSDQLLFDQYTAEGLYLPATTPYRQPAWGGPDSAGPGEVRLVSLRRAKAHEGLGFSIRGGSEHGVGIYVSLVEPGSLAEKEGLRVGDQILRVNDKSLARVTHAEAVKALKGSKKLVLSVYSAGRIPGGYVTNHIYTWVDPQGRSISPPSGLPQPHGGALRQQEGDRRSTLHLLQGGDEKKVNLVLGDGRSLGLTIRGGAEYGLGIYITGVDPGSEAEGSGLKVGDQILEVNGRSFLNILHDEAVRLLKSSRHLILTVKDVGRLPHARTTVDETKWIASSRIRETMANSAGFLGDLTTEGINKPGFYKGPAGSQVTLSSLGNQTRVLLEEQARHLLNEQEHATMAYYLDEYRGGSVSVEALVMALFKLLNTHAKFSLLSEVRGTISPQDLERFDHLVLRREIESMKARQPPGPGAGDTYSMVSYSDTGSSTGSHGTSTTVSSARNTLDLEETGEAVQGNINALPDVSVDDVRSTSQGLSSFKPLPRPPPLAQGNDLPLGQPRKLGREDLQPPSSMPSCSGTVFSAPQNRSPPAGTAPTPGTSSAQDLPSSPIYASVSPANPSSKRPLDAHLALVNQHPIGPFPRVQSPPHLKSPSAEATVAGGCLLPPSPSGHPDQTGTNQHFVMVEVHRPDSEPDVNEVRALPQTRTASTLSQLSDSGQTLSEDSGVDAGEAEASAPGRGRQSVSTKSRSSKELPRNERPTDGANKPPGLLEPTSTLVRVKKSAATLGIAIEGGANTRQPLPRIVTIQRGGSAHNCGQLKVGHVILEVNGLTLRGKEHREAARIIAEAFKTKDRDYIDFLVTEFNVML
The experiment is described as follows: Holdup assay, DFNB31-3. It counts as binding.

The next experiment addresses T2, MAGI1 PDZ 3 (Homo sapiens, UniProt Q96QZ7).
T2 construct: made in house; host or cells: E. coli
The experiment in a line: Holdup assay, MAGI1-3. The format is binding. The settings on record: for BI: MAGI1-3. The protocol: (§1) The holdup assay was performed on a Tecan freedom Evo200 robot with 384-well plates in singlicate for the three 11-mer PTEN variants and the 13-mer PTEN peptide as described in [31, 32]. Briefly, prior to interaction assay, 2.5 μL of streptavidin resin was saturated in each well with 20 μL of biotinylated PBM peptides (42 μM) and then washed twice with an excess of free biotin, while the reference resin was incubated only with biotin. Right before the holdup experiment, the PDZ library was spiked with an internal standard of lysozyme. Then, the biotin- or PBM-saturated resin was incubated, each in a distinct well of a 384-well plate, with complete cell lysates diluted so that the concentration of the tag-PDZ present in the crude extract is adjusted at 4 μM. After a sufficient time to reach complex equilibrium (15 min.), a fast and mild filtration step is performed and the tag-PDZ concentrations were measured by capillary electrophoresis instrument (LabChip GXII, PerkinElmer, Massachusets, USA). Standard markers were used to convert migration time into molecular weight on the LabChip software and inappropriate molecular weight markers were corrected or excluded.
(§2) For filtered data, the BI was extracted with the following equation (Eq 1) that estimates the depleted fraction after superimposition of the sample and reference electropherograms: BI=Iref−Ilig/Iref (1) where Iref and Ilig are the intensities of the tag-PDZ peaks measured, for each PDZ domain/PBM peptide interaction pair, in the biotin reference and the PBM electropherograms, respectively.
(§3) BIs were transformed into dissociation constants (KD) using the following formula: KD=([PDZtot]−BI·[PDZtot])·([PBMtot]−BI·[PDZtot])/BI·[PDZtot] (2) where [PDZtot] and [PBMtot] correspond to the total concentrations of the PDZ domain (usually around 4 μM) and the PBM peptide used during the assay. Since the PBMtot concentration in the resin during the holdup assay parameter may differ from one peptide to another and remains unknown, it is impossible to directly convert BI values into KD constants. We systematically determined the KD constants for a subset of PDZ/PBM pairs by competitive FP. […] For each PBM, the average peptide concentration was calculated after outlier rejection based on the absolute distances from the median as compared to three times the standard deviation (3σ rule), with never more than 2 values rejected.

The next experiment concerns the target T3, HTRA1-1 (Homo sapiens, UniProt Q92743).
T3 construct: His-MBP or His-TRX (N); made in house; host or cells: E. coli
The experiment in a line: Holdup assay, HTRA1-1. It counts as binding. Here is the method:
as §1, §2

The test system of another experiment is DLG3-1. The experiment in a line: Holdup assay, DLG3-1. It counts as binding, human.
The target of another experiment is T4, DLG4 PDZ 1 (Homo sapiens, UniProt P78352).
T4 construct: made in house; host or cells: E. coli
T4 sequence (P78352 65-151): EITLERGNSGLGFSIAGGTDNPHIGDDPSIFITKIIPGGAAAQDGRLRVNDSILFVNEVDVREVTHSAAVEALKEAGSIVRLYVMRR
The experiment is described as follows: Holdup assay, DLG4-1. The format is binding. The settings on record: for BI: DLG4-1. The protocol: as §1, §2, §3

This is an account of results in article PMC7774954, “Interactomic affinity profiling by holdup assay: Acetylation and distal residues impact the PDZome-binding specificity of PTEN phosphatase” (PLoS ONE, 2020).

*1 amine or outer side, *2 acyl side, *3 side chain or, on linkers, in order; H or OH if unused. Where a SMILES comes first, the peptide text is derived from it. The star is where a group is joined. X1 = O=C(CCCC[C@@H]1SC[C@@H]2NC(=O)N[C@@H]21)NCCCOCCOCCOCCCN*; Suc = O=C(CCC(=O)[*:2])[*:1]

T2 sequence (Q96QZ7 643-721 limits assumed): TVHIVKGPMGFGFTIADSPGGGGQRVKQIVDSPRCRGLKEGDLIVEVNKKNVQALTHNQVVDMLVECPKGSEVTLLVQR
T3 sequence (Q92743 365-467 limits assumed): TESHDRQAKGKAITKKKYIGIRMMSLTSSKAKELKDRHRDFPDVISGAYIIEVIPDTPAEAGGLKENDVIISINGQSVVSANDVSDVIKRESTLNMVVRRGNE

Turning to `CC[C@H](C)[C@H](NC(=O)[C@H](CCC(N)=O)NC(=O)[C@@H](NC(=O)[C@H](Cc1c[nH]cn1)NC(=O)[C@H](CCC(N)=O)NC(=O)[C@H](CC(=O)O)NC(=O)[C@H](CCC(=O)O)NC(=O)[C@H](CC(=O)O)NC(=O)[C@H](Cc1ccccc1)NC(=O)[C@@H]1CCCN1C(=O)CCC(=O)NCCCOCCOCCOCCCNC(=O)CCCC[C@@H]1SC[C@@H]2NC(=O)N[C@@H]21)[C@@H](C)O)C(=O)N[C@H](C(=O)N[C@@H](CCCCN)C(=O)N[C@H](C(=O)O)C(C)C)[C@@H](C)O` [PTEN_13] ({X1-Suc}-PFDEDQHTQITKV-OH), the BI on DFNB31-3 was 0.061; at MAGI1 PDZ 3, 0.584; on HTRA1-1 (HTRA1-1), 0.235; with DLG3-1, -0.03; at DLG4 PDZ 1 it was 0.077. The compound further returned a LogKD at DFNB31-3 of 3.826. Moreover, the results for the Kd at MAGI1 PDZ 3 and at HTRA1-1 were 10.4 µM and 52.3 µM, respectively.
As for `CC[C@H](C)[C@H](NC(=O)[C@H](CCC(N)=O)NC(=O)[C@@H](NC(=O)[C@H](Cc1c[nH]cn1)NC(=O)[C@H](CCC(N)=O)NC(=O)[C@H](CC(=O)O)NC(=O)[C@H](CCC(=O)O)NC(=O)[C@H](CC(=O)O)NC(=O)CCC(=O)NCCCOCCOCCOCCCNC(=O)CCCC[C@@H]1SC[C@@H]2NC(=O)N[C@@H]21)[C@@H](C)O)C(=O)N[C@H](C(=O)N[C@@H](CCCNC(=N)N)C(=O)N[C@H](C(=O)O)C(C)C)[C@@H](C)O` [PTEN_KR] ({X1-Suc}-DEDQHTQITRV-OH), the BI is recorded as -0.014 on DFNB31-3; 0.605 at MAGI1 PDZ 3; 0.368 at HTRA1-1 (HTRA1-1); 0.066 in the experiment with DLG3-1; 0.229 at DLG4 PDZ 1. The LogKD at DFNB31-3 and in the experiment on DLG3-1 was 3.655 throughout. The Kd is 14.7 µM on MAGI1 PDZ 3, 40.4 µM at HTRA1-1 and 81.1 µM on DLG4 PDZ 1.
For `CC[C@H](C)[C@H](NC(=O)[C@H](CCC(N)=O)NC(=O)[C@@H](NC(=O)[C@H](Cc1c[nH]cn1)NC(=O)[C@H](CCC(N)=O)NC(=O)[C@H](CC(=O)O)NC(=O)[C@H](CCC(=O)O)NC(=O)[C@H](CC(=O)O)NC(=O)CCC(=O)NCCCOCCOCCOCCCNC(=O)CCCC[C@@H]1SC[C@@H]2NC(=O)N[C@@H]21)[C@@H](C)O)C(=O)N[C@H](C(=O)N[C@@H](CCCCN)C(=O)N[C@H](C(=O)O)C(C)C)[C@@H](C)O` [PTEN_11], the BI on DFNB31-3 is on record as 0.089; at MAGI1 PDZ 3, 0.519; at HTRA1-1 (HTRA1-1) it was 0.405; in the experiment on DLG3-1, 0; on DLG4 PDZ 1, 0.103. Further, the LogKD on DFNB31-3 and in the experiment on DLG3-1 was 3.519 each time. In addition, the Kd was 29.6 µM on MAGI1 PDZ 3 and 47.6 µM at HTRA1-1. Besides, the “BI (binding intensity)” value at HTRA1-1 (HTRA1-1, holdup, singlicate) came out at 0.41.
On to `CC[C@H](C)[C@H](NC(=O)[C@H](CCC(N)=O)NC(=O)[C@@H](NC(=O)[C@H](Cc1c[nH]cn1)NC(=O)[C@H](CCC(N)=O)NC(=O)[C@H](CC(=O)O)NC(=O)[C@H](CCC(=O)O)NC(=O)[C@H](CC(=O)O)NC(=O)CCC(=O)NCCCOCCOCCOCCCNC(=O)CCCC[C@@H]1SC[C@@H]2NC(=O)N[C@@H]21)[C@@H](C)O)C(=O)N[C@H](C(=O)N[C@@H](CCCCNC(C)=O)C(=O)N[C@H](C(=O)O)C(C)C)[C@@H](C)O` [PTEN_Ac], for which the BI is recorded as 0.275 at DFNB31-3; 0.715 on MAGI1 PDZ 3; 0.712 on HTRA1-1 (HTRA1-1); 0.013 in the experiment on DLG3-1; 0.15 on DLG4 PDZ 1. Besides, the Kd on DFNB31-3 was 70.9 µM; at MAGI1 PDZ 3, 10 µM; on HTRA1-1 it was 10.2 µM. Moreover, in the experiment with DLG3-1, the LogKD is 3.605.

As usually defined, the Kd is a measure of binding affinity in units of concentration. A high value points to lower affinity.
